Data from US20150306110A1, “COMPOSITIONS AND METHODS FOR TREATMENT OF INFLAMMATION AND HYPERKERATOTIC LESIONS” (Novelix Pharmaceuticals, Inc., priority 2008, published 2015).
Values after ≈ are worked out from the molar mass of the structure shown.

Test: Solubility in ethanol, DMSO and ethanol-Tween 80
Assay type: physicochemical
Conditions: organic solvent or mixture
Procedure: After solution in ethanol or DMSO, or chemically similar solvents, NVX-207 or a related compound may be formulated with co-solvents such as Cremophor EL® and/or Tween® 80, in a similar manner described for taxanes. For example, the formulation approach for paclitaxel (TAXOL®; Bristol-Myers Squibb) was to use 50% Cremophor EL® and 50% ethanol. The pharmaceutical formulation of paclitaxel contains 30 mg paclitaxel dissolved in 5 ml of this (1:1, v/v) mixture. These and equivalent formulations allow for the application of NVX-207 in sufficiently high concentrations not only for topical, but also for intralesional and systemic (intravenous infusion) use. Solubility of NVX-207 in ethanol was determined to be at least 300 mg/ml and reached 250 mg/ml in DMSO. […] The solubility of NVX-207 in ethanol-Tween® 80 was evaluated. Two-hundred mg of NVX-207 was dissolved in 1 ml ethanol. […] Then an equal volume of Tween® 80 was added, to achieve a stock solution of 100 mg/ml of NVX-207. The stock solution was clear and yellow. Each stock solution was diluted first 1:1 (50 mg/ml NVX-207), then 1:5 (20 mg/ml NVX-207) and finally 1:10 (10 mg/ml NVX-207) with water. […] NVX-207 therefore has, apart from its higher activity, significant advantages over betulinic acid, that include higher activity, better solubility in pharmaceutically suitable solvents, and better handling.

C=C(C)[C@@H]1CC[C@]2(C(=O)O)CC[C@]3(C)[C@H](CC[C@@H]4[C@@]5(C)CC[C@H](O)C(C)(C)[C@@H]5CC[C@]43C)[C@@H]12 [betulinic acid, reference compound]
solubility (Solubility in DMSO): 10000 µg/mL (≈ 21.9 mM) | solubility (Solubility in ethanol): < 1000 µg/mL
